According to patent US12544395B2, “Combination compositions comprising a beta-lactamase inhibitor and uses thereof” (priority 2018, dated 2026):

Tests used:
Assay type in all cases: cell-based
E. coli SI-NO36 = assay: Broth microdilution MIC (strain enzymes: SHV-11, TEM-1)
K. pneumoniae ESBL 7 #2 = assay: Broth microdilution MIC (strain enzymes: SHV-12, CTX-M15, TEM-1)
K. pneumoniae 170375 = assay: Broth microdilution MIC (strain enzymes: SHV-12, CTX-M15 and TEM-1)
E. coli ESBL 2 = assay: Broth microdilution MIC (strain enzymes: TEM-1)
K. pneumoniae KP 4 = assay: Broth microdilution MIC (strain enzymes: SHV-2a, SHV-5, TEM-1)
K. pneumoniae 329633 = assay: Broth microdilution MIC (strain enzymes: SHV-5, TEM-1)
E. coli 3327 = assay: Broth microdilution MIC (strain enzymes: TEM-1, SHV-12)
E. coli SI-LP377 = assay: microbe, parasite or virus in culture
E. coli SI-AIRT-4 = assay: Broth microdilution MIC (strain enzymes: TEM-1)
E. coli 2806 = assay: Broth microdilution MIC (strain enzymes: SHV-12, TEM-1)
K. pneumoniae SI-KP NO30 = assay: Broth microdilution MIC (strain enzymes: TEM-26b, SHV-60, SHV-26)
K. pneumoniae KP 3 = assay: Broth microdilution MIC (strain enzymes: SHV-1, TEM-1); conditions: with inhibitor at 1 μg/mL

CCC(=O)N[C@H]1Cc2cccc(C(=O)O)c2OB1O [Compound 2, (R)-2-hydroxy-3-propionamido-3,4-dihydro-2H-benzo[e][1,2]oxaborinine-8-carboxylic acid]
0.5 µg/mL: MIC of cefixime (CFM) (E. coli SI-NO36; with inhibitor at 1 μg/mL) | MIC of cefixime (CFM) (E. coli SI-NO36; with inhibitor at 4 μg/mL) | MIC of cefalexin (LEX) (E. coli ESBL 2; with inhibitor at 1 μg/mL) | MIC of cefdinir (CDR) (E. coli ESBL 2; with inhibitor at 1 μg/mL) | MIC of cefalexin (LEX) (E. coli ESBL 2; with inhibitor at 2 μg/mL) | MIC of cefdinir (CDR) (E. coli ESBL 2; with inhibitor at 2 μg/mL) | MIC of cefalexin (LEX) (K. pneumoniae KP 4; with inhibitor at 1 μg/mL) | MIC of cefdinir (CDR) (K. pneumoniae KP 4; with inhibitor at 1 μg/mL) | MIC of cefalexin (LEX) (K. pneumoniae KP 4; with inhibitor at 2 μg/mL) | MIC of cefdinir (CDR) (K. pneumoniae KP 4; with inhibitor at 2 μg/mL) | MIC of cefixime (CFM) (K. pneumoniae KP 4; with inhibitor at 2 μg/mL) | MIC of cefixime (CFM) (K. pneumoniae 329633; with inhibitor at 2 μg/mL) | MIC of cefixime (CFM) (K. pneumoniae 329633; with inhibitor at 4 μg/mL) | MIC of cefalexin (LEX) (E. coli 3327; with inhibitor at 1 μg/mL) | MIC of cefdinir (CDR) (E. coli 3327; with inhibitor at 1 μg/mL) | MIC of cefalexin (LEX) (E. coli 3327; with inhibitor at 2 μg/mL) | MIC of cefdinir (CDR) (E. coli 3327; with inhibitor at 2 μg/mL) | MIC of cefixime (CFM) (E. coli 3327; with inhibitor at 2 μg/mL) | MIC of cefalexin (LEX) (E. coli 3327; with inhibitor at 4 μg/mL) | MIC of cefdinir (CDR) (E. coli 3327; with inhibitor at 4 μg/mL) | MIC of cefixime (CFM) (E. coli 3327; with inhibitor at 4 μg/mL) | MIC of cefixime (CFM) (E. coli SI-LP377; with inhibitor at 1 μg/mL) | MIC of cefixime (CFM) (K. pneumoniae SI-KP NO30; with inhibitor at 1 μg/mL) | MIC of cefalexin (LEX) (K. pneumoniae KP 3) | MIC of cefdinir (CDR) (K. pneumoniae KP 3)
0.25 µg/mL: MIC of cefixime (CFM) (E. coli SI-NO36; with inhibitor at 2 μg/mL) | MIC of cefalexin (LEX) (E. coli SI-NO36; with inhibitor at 4 μg/mL) | MIC of cefdinir (CDR) (E. coli SI-NO36; with inhibitor at 4 μg/mL) | MIC of cefixime (CFM) (E. coli ESBL 2; with inhibitor at 1 μg/mL) | MIC of cefixime (CFM) (E. coli ESBL 2; with inhibitor at 2 μg/mL) | MIC of cefalexin (LEX) (E. coli ESBL 2; with inhibitor at 4 μg/mL) | MIC of cefdinir (CDR) (E. coli ESBL 2; with inhibitor at 4 μg/mL) | MIC of ceftibuten (CTB) (K. pneumoniae KP 4; with inhibitor at 1 μg/mL) | MIC of cefixime (CFM) (K. pneumoniae KP 4; with inhibitor at 4 μg/mL) | MIC of cefalexin (LEX) (K. pneumoniae 329633; with inhibitor at 1 μg/mL) | MIC of cefdinir (CDR) (K. pneumoniae 329633; with inhibitor at 1 μg/mL) | MIC of cefalexin (LEX) (K. pneumoniae 329633; with inhibitor at 2 μg/mL) | MIC of cefdinir (CDR) (K. pneumoniae 329633; with inhibitor at 2 μg/mL) | MIC of ceftibuten (CTB) (E. coli 3327; with inhibitor at 1 μg/mL) | MIC of ceftibuten (CTB) (E. coli 3327; with inhibitor at 2 μg/mL) | MIC of ceftibuten (CTB) (E. coli 3327; with inhibitor at 4 μg/mL) | MIC of cefixime (CFM) (E. coli SI-LP377; with inhibitor at 2 μg/mL) | MIC of cefalexin (LEX) (E. coli SI-AIRT-4; with inhibitor at 1 μg/mL) | MIC of cefdinir (CDR) (E. coli SI-AIRT-4; with inhibitor at 1 μg/mL) | MIC of cefalexin (LEX) (E. coli SI-AIRT-4; with inhibitor at 2 μg/mL) | MIC of cefdinir (CDR) (E. coli SI-AIRT-4; with inhibitor at 2 μg/mL) | MIC of cefalexin (LEX) (E. coli SI-AIRT-4; with inhibitor at 4 μg/mL) | MIC of cefdinir (CDR) (E. coli SI-AIRT-4; with inhibitor at 4 μg/mL) | MIC of cefixime (CFM) (E. coli 2806; with inhibitor at 1 μg/mL) | MIC of cefalexin (LEX) (E. coli 2806; with inhibitor at 4 μg/mL) | MIC of cefdinir (CDR) (E. coli 2806; with inhibitor at 4 μg/mL) | MIC of cefalexin (LEX) (K. pneumoniae SI-KP NO30; with inhibitor at 2 μg/mL) | MIC of cefdinir (CDR) (K. pneumoniae SI-KP NO30; with inhibitor at 2 μg/mL) | MIC of cefixime (CFM) (K. pneumoniae SI-KP NO30; with inhibitor at 2 μg/mL) | MIC of cefixime (CFM) (K. pneumoniae SI-KP NO30; with inhibitor at 4 μg/mL)
0.125 µg/mL: MIC of cefalexin (LEX) (E. coli SI-NO36; with inhibitor at 1 μg/mL) | MIC of cefdinir (CDR) (E. coli SI-NO36; with inhibitor at 1 μg/mL) | MIC of cefalexin (LEX) (E. coli SI-NO36; with inhibitor at 2 μg/mL) | MIC of cefdinir (CDR) (E. coli SI-NO36; with inhibitor at 2 μg/mL) | MIC of ceftibuten (CTB) (E. coli SI-NO36; with inhibitor at 2 μg/mL) | MIC of ceftibuten (CTB) (E. coli ESBL 2; with inhibitor at 1 μg/mL) | MIC of ceftibuten (CTB) (E. coli ESBL 2; with inhibitor at 2 μg/mL) | MIC of cefixime (CFM) (E. coli ESBL 2; with inhibitor at 4 μg/mL) | MIC of ceftibuten (CTB) (E. coli ESBL 2; with inhibitor at 4 μg/mL) | MIC of ceftibuten (CTB) (K. pneumoniae KP 4; with inhibitor at 2 μg/mL) | MIC of cefalexin (LEX) (K. pneumoniae KP 4; with inhibitor at 4 μg/mL) | MIC of cefdinir (CDR) (K. pneumoniae KP 4; with inhibitor at 4 μg/mL) | MIC of ceftibuten (CTB) (K. pneumoniae KP 4; with inhibitor at 4 μg/mL) | MIC of ceftibuten (CTB) (E. coli SI-LP377; with inhibitor at 1 μg/mL) | MIC of ceftibuten (CTB) (E. coli SI-LP377; with inhibitor at 2 μg/mL) | MIC of cefixime (CFM) (E. coli SI-LP377; with inhibitor at 4 μg/mL) | MIC of ceftibuten (CTB) (E. coli SI-LP377; with inhibitor at 4 μg/mL) | MIC of cefixime (CFM) (E. coli SI-AIRT-4; with inhibitor at 1 μg/mL) | MIC of cefixime (CFM) (E. coli SI-AIRT-4; with inhibitor at 2 μg/mL) | MIC of cefalexin (LEX) (E. coli 2806; with inhibitor at 1 μg/mL) | MIC of cefdinir (CDR) (E. coli 2806; with inhibitor at 1 μg/mL) | MIC of cefalexin (LEX) (E. coli 2806; with inhibitor at 2 μg/mL) | MIC of cefdinir (CDR) (E. coli 2806; with inhibitor at 2 μg/mL) | MIC of cefixime (CFM) (E. coli 2806; with inhibitor at 2 μg/mL) | MIC of ceftibuten (CTB) (E. coli 2806; with inhibitor at 2 μg/mL) | MIC of cefixime (CFM) (E. coli 2806; with inhibitor at 4 μg/mL) | MIC of ceftibuten (CTB) (E. coli 2806; with inhibitor at 4 μg/mL) | MIC of cefalexin (LEX) (K. pneumoniae SI-KP NO30; with inhibitor at 1 μg/mL) | MIC of cefdinir (CDR) (K. pneumoniae SI-KP NO30; with inhibitor at 1 μg/mL) | MIC of cefalexin (LEX) (K. pneumoniae SI-KP NO30; with inhibitor at 4 μg/mL) | MIC of cefdinir (CDR) (K. pneumoniae SI-KP NO30; with inhibitor at 4 μg/mL)
>32 µg/mL: MIC of cefalexin (LEX) (K. pneumoniae ESBL 7 #2; with inhibitor at 1 μg/mL) | MIC of cefdinir (CDR) (K. pneumoniae ESBL 7 #2; with inhibitor at 1 μg/mL)
0.06 µg/mL: MIC of ceftibuten (CTB) (E. coli SI-NO36; with inhibitor at 1 μg/mL) | MIC of ceftibuten (CTB) (E. coli SI-NO36; with inhibitor at 4 μg/mL) | MIC of ceftibuten (CTB) (K. pneumoniae 170375; with inhibitor at 1 μg/mL) | MIC of ceftibuten (CTB) (K. pneumoniae 170375; with inhibitor at 2 μg/mL) | MIC of ceftibuten (CTB) (K. pneumoniae 170375; with inhibitor at 4 μg/mL) | MIC of ceftibuten (CTB) (K. pneumoniae 329633; with inhibitor at 1 μg/mL) | MIC of ceftibuten (CTB) (K. pneumoniae 329633; with inhibitor at 2 μg/mL) | MIC of ceftibuten (CTB) (K. pneumoniae 329633; with inhibitor at 4 μg/mL) | MIC of ceftibuten (CTB) (E. coli SI-AIRT-4; with inhibitor at 1 μg/mL) | MIC of ceftibuten (CTB) (E. coli SI-AIRT-4; with inhibitor at 2 μg/mL) | MIC of cefixime (CFM) (E. coli SI-AIRT-4; with inhibitor at 4 μg/mL) | MIC of ceftibuten (CTB) (E. coli SI-AIRT-4; with inhibitor at 4 μg/mL) | MIC of ceftibuten (CTB) (E. coli 2806; with inhibitor at 1 μg/mL) | MIC of ceftibuten (CTB) (K. pneumoniae SI-KP NO30; with inhibitor at 1 μg/mL) | MIC of ceftibuten (CTB) (K. pneumoniae SI-KP NO30; with inhibitor at 2 μg/mL) | MIC of ceftibuten (CTB) (K. pneumoniae SI-KP NO30; with inhibitor at 4 μg/mL)
8 µg/mL: MIC of cefixime (CFM) (K. pneumoniae ESBL 7 #2; with inhibitor at 1 μg/mL) | MIC of cefixime (CFM) (K. pneumoniae ESBL 7 #2; with inhibitor at 2 μg/mL) | MIC of cefalexin (LEX) (K. pneumoniae 170375; with inhibitor at 1 μg/mL) | MIC of cefdinir (CDR) (K. pneumoniae 170375; with inhibitor at 1 μg/mL)
1 µg/mL: MIC of cefixime (CFM) (K. pneumoniae ESBL 7 #2; with inhibitor at 4 μg/mL) | MIC of ceftibuten (CTB) (K. pneumoniae ESBL 7 #2; with inhibitor at 4 μg/mL) | MIC of cefixime (CFM) (K. pneumoniae 170375; with inhibitor at 1 μg/mL) | MIC of cefixime (CFM) (K. pneumoniae 170375; with inhibitor at 2 μg/mL) | MIC of cefixime (CFM) (K. pneumoniae 170375; with inhibitor at 4 μg/mL) | MIC of cefixime (CFM) (K. pneumoniae 329633; with inhibitor at 1 μg/mL) | MIC of cefalexin (LEX) (K. pneumoniae 329633; with inhibitor at 4 μg/mL) | MIC of cefdinir (CDR) (K. pneumoniae 329633; with inhibitor at 4 μg/mL) | MIC of cefixime (CFM) (E. coli 3327; with inhibitor at 1 μg/mL) | MIC of cefalexin (LEX) (E. coli SI-LP377; with inhibitor at 2 μg/mL) | MIC of cefdinir (CDR) (E. coli SI-LP377; with inhibitor at 2 μg/mL) | MIC of cefalexin (LEX) (E. coli SI-LP377; with inhibitor at 4 μg/mL) | MIC of cefdinir (CDR) (E. coli SI-LP377; with inhibitor at 4 μg/mL)
2 µg/mL: MIC of ceftibuten (CTB) (K. pneumoniae ESBL 7 #2; with inhibitor at 2 μg/mL) | MIC of cefalexin (LEX) (K. pneumoniae 170375; with inhibitor at 4 μg/mL) | MIC of cefdinir (CDR) (K. pneumoniae 170375; with inhibitor at 4 μg/mL) | MIC of cefixime (CFM) (K. pneumoniae KP 4; with inhibitor at 1 μg/mL)
32 µg/mL: MIC of cefalexin (LEX) (K. pneumoniae ESBL 7 #2; with inhibitor at 2 μg/mL) | MIC of cefdinir (CDR) (K. pneumoniae ESBL 7 #2; with inhibitor at 2 μg/mL)
16 µg/mL: MIC of cefalexin (LEX) (K. pneumoniae ESBL 7 #2; with inhibitor at 4 μg/mL) | MIC of cefdinir (CDR) (K. pneumoniae ESBL 7 #2; with inhibitor at 4 μg/mL)
4 µg/mL: MIC of ceftibuten (CTB) (K. pneumoniae ESBL 7 #2; with inhibitor at 1 μg/mL) | MIC of cefalexin (LEX) (K. pneumoniae 170375; with inhibitor at 2 μg/mL) | MIC of cefdinir (CDR) (K. pneumoniae 170375; with inhibitor at 2 μg/mL) | MIC of cefalexin (LEX) (E. coli SI-LP377; with inhibitor at 1 μg/mL) | MIC of cefdinir (CDR) (E. coli SI-LP377; with inhibitor at 1 μg/mL) | MIC of cefixime (CFM) (K. pneumoniae KP 3)
